The results in this text go back to patent publication US20110105380A1, “Protection of Nano-Scale Particles from Immune Cell Uptake” (THE TRUSTEES OF THE UNIVERSITY OF PENNSYLVANIA, priority 2009, published 2011).

For this assay, the system named is non-muscle myosin IIA at the phagocytic synapse of THP-1 macrophages. As to the kind of experiment: Protein localization to the phagocytic synapse (immunofluorescence). It counts as cell-based, human. To be noted: blebbistatin 50 μM, 10 min pre-incubation. The protocol:
FIG. 4, comprising FIGS. 4A-4B, illustrates CD47 inhibiting myosin localization as similar to blebbistatin. Phagocytic synapses of THP-1 macrophages with IgG-opsonized sheep- or human-RBC (37° C., 10 min) after pre-incubation with blebbistatin (50 μM, 10 min). DMSO was used as a control. FIG. 4A depicts cells fixed and immunostained for non-muscle myosin IIA, F-actin, and Paxillin-Y^118. The scale bars are […]. FIG. 4B depicts quantitation of protein localization to the phagocytic synapse relative to the cytoplasmic intensity set at 1.0 (n=5 cells, ±SD). For cytoskeletal involvement at the phagocytic synapse, streptavidin beads opsonized with rabbit anti-streptavidin FITC. Opsonized beads of different sizes were added to THP-1 cells, PMA treated and immediately placed at 4° C. for 10 min to synchronize phagocytosis. […] For studies involving blebbistatin (EMD Biosciences), macrophages were treated for 10 min at 4° C. prior to temperature increase to 37° C. or for 45 min and 37° C. Macrophages treated with DMSO were used to verify no solvent effects. Immunostaining was performed by permeabilization with 0.1% Triton X-100 in PBS for 20 min before blocking for 1 h with 5% BSA in PBS. Staining with primary antibodies was carried out for 1 h at room temperature in PBS. […] Samples were analyzed by differential interference contrast (DIC) and fluorescence microscopy. […]

Take `Cc1ccc2c(c1)C(=O)C1(O)CCN(c3ccccc3)C1=N2` (stereo not shown) [blebbistatin]: the “enrichment of NMM IIA at synaptic contacts with sheep RBC targets” value is “inhibited enrichment of NMM IIA”.
